Source: patent US20230381157A1, “RIFABUTIN FOR THE TREATMENT OF ACINETOBACTER BAUMANNII” (University of Southern California, priority 2018, published 2023)
Read-outs that look alike come from different tables or passages of the source.

Columns and labels:
HEK293T = experiment: Specificity: mammalian cell cytotoxicity / inhibition of bacteria growth (CC50/IC50)
A. baumannii ATCC 17978 = experiment: IC50 dose response, inhibition of bacterial growth (BacTiter-Glo viability); type: cell-based, Acinetobacter baumannii; settings: 11-point dose response, read-out: IC50
A. baumannii HUMC1 [1] = experiment: as above; type: cell-based, Acinetobacter baumannii; settings: 11-point dose response, read-out: IC50
A. baumannii HUMC1 [2] = experiment: MIC, broth microdilution in MHII, RPMI or modified media; type: cell-based, Acinetobacter baumannii; settings: Acinetobacter baumannii, HUMC1, HUMC1; inhibitor alone; read-out: MIC of efflux pump inhibitor alone
[3] = IC50 vs A. baumannii ATCC 17978, RPMI + 50% serum
[4] = IC50 vs A. baumannii ATCC 17978, RPMI alone
[5] = IC50 vs A. baumannii HUMC1, RPMI + 50% serum
[6] = IC50 vs A. baumannii HUMC1, RPMI alone
[7] = Acinetobacter baumannii, ATCC17978, 24 h, ATCC 17978, RPMI + 50% Serum
[8] = Acinetobacter baumannii, ATCC17978, ATCC 17978, RPMI + 50% Serum
[9] = Acinetobacter baumannii, ATCC17978, ATCC 17978, RPMI
[10] = Acinetobacter baumannii, HUMC1, 24 h, HUMC1, RPMI + 50% Serum
[11] = Acinetobacter baumannii, HUMC1, HUMC1, RPMI + 50% Serum
[12] = Acinetobacter baumannii, HUMC1, HUMC1, RPMI

Q: Which “Specificity HEK293T (CC50/IC50)” value (HEK293T; [3]) does the source give for `CO[C@H]1/C=C/O[C@@]2(C)Oc3c(C)c([O-])c4c(O)c(cc(O)c4c3C2=O)NC(=O)/C(C)=C\C=C\[C@H](C)[C@H](O)[C@@H](C)[C@@H](O)[C@@H](C)[C@H](OC(C)=O)[C@@H]1C.[Na+]` [rifamycin SV] here?
A: 1.000

Q: What about the “Specificity HEK293T (CC50/IC50)” value (HEK293T; [4]) of the same compound?
A: 1.108

Q: And the “Specificity HEK293T (CC50/IC50)” value (HEK293T; [5])?
A: 1.000

Q: And the “Specificity HEK293T (CC50/IC50)” value (HEK293T; [6])?
A: 1.348

Q: And the IC50 (A. baumannii ATCC 17978; ATCC 17978, RPMI + 50% Serum)?
A: 50 µM

Q: And the IC50 (A. baumannii ATCC 17978; ATCC 17978, RPMI)?
A: 45.1 µM

Q: And the IC50 (A. baumannii HUMC1 [1]; HUMC1, RPMI + 50% Serum)?
A: 50 µM

Q: And the IC50 (A. baumannii HUMC1 [1]; HUMC1, RPMI)?
A: 37.1 µM

Q: Which results are given for `CO[C@H]1/C=C/O[C@@]2(C)Oc3c(C)c(O)c4c(O)c(cc(O)c4c3C2=O)NC(=O)/C(C)=C\C=C\[C@H](C)[C@H](O)[C@@H](C)[C@@H](O)[C@@H](C)[C@H](OC(C)=O)[C@@H]1C` [rifamycin]?
A: Specificity HEK293T (CC50/IC50) (HEK293T; [3]): 0.412; Specificity HEK293T (CC50/IC50) (HEK293T; [4]): 0.478; Specificity HEK293T (CC50/IC50) (HEK293T; [5]): 0.383; Specificity HEK293T (CC50/IC50) (HEK293T; [6]): 0.654; IC50 (A. baumannii ATCC 17978; [7]): 33 µM; IC50 (A. baumannii ATCC 17978; [8]): 33 µM; IC50 (A. baumannii ATCC 17978; [9]): 28.4 µM; IC50 (A. baumannii HUMC1 [1]; [10]): 35.4 µM; IC50 (A. baumannii HUMC1 [1]; [11]): 35.4 µM; IC50 (A. baumannii HUMC1 [1]; [12]): 20.8 µM

Q: Which results are given for `CO[C@H]1/C=C/O[C@@]2(C)Oc3c(C)c(O)c4c(O)c(c(/C=N/N5CCN(C6CCCC6)CC5)c(O)c4c3C2=O)NC(=O)/C(C)=C\C=C\[C@H](C)[C@H](O)[C@@H](C)[C@@H](O)[C@@H](C)[C@H](OC(C)=O)[C@@H]1C` [rifapentine]?
A: Specificity HEK293T (CC50/IC50) (HEK293T; [3]): 1.222; Specificity HEK293T (CC50/IC50) (HEK293T; [4]): 4.517; Specificity HEK293T (CC50/IC50) (HEK293T; [5]): 3.148; Specificity HEK293T (CC50/IC50) (HEK293T; [6]): 3.413; IC50 (A. baumannii ATCC 17978; [7]): 28.1 µM; IC50 (A. baumannii ATCC 17978; [8]): 28.1 µM; IC50 (A. baumannii ATCC 17978; [9]): 7.59 µM; IC50 (A. baumannii HUMC1 [1]; [10]): 10.9 µM; IC50 (A. baumannii HUMC1 [1]; [11]): 10.9 µM; IC50 (A. baumannii HUMC1 [1]; [12]): 10 µM

Q: Which “Specificity HEK293T (CC50/IC50)” value (HEK293T; [3]) does the source give for `CO[C@H]1/C=C/O[C@@]2(C)Oc3c(C)c(O)c4c(O)c(c5c(nc6cc(C)ccn65)c4c3C2=O)NC(=O)/C(C)=C\C=C\[C@H](C)[C@H](O)[C@@H](C)[C@@H](O)[C@@H](C)[C@H](OC(C)=O)[C@@H]1C` [rifaximin] here?
A: 20.421

Q: And the “Specificity HEK293T (CC50/IC50)” value (HEK293T; [4])?
A: 28.143

Q: What about the “Specificity HEK293T (CC50/IC50)” value (HEK293T; [5]) of the same compound?
A: 31.517

Q: And the “Specificity HEK293T (CC50/IC50)” value (HEK293T; [6])?
A: 32.776

Q: What about the IC50 (A. baumannii ATCC 17978; [7]) of the same compound?
A: 2.45 µM

Q: What about the IC50 (A. baumannii ATCC 17978; [8]) of the same compound?
A: 2.45 µM

Q: And the IC50 (A. baumannii ATCC 17978; [9])?
A: 1.78 µM

Q: And the IC50 (A. baumannii HUMC1 [1]; [10])?
A: 1.59 µM

Q: What about the IC50 (A. baumannii HUMC1 [1]; [11]) of the same compound?
A: 1.59 µM

Q: What about the IC50 (A. baumannii HUMC1 [1]; [12]) of the same compound?
A: 1.53 µM

Q: For `CSc1ccc2c(c1)N(CCC1CCCCN1C)c1ccccc1S2` (stereo not drawn) [thioridazine], which MIC (A. baumannii HUMC1 [2]) is on record?
A: 64 µg/mL
